Measured values taken from US9409952B2, “Peptide-compound cyclization method” (Chugai Seiyaku Kabushiki Kaisha, priority 2011, dated 2016).
Positions of bridges follow the written chain, without caps; N, C: chain ends. Non-standard residues stand in square brackets, D forms with d. Residues, ends and D or L forms follow the SMILES beside them. ξ: configuration not given here. *: point of attachment. Cha = N[C@@H](CC1CCCCC1)C(=O)O; Thr(3ξ) = CC(O)[C@H](N)C(=O)O; NMeA = CN[C@@H](C)C(=O)O; Piperidide = C1CCN(*)CC1

Legend:
[1] = Identification of the metabolic site in mouse liver microsome (LC/MS); assay type: in vitro ADME; details: 10 uM, mouse liver microsome 0.5 mg protein/mL, 1 hour, with NADPH
Method: Compound P-113 cyclized peptide was metabolically reacted at a concentration of 10 uM with a microsome solution prepared at 0.5 mg protein/mL from mouse liver (male, manufactured by XENOTECH, USA) using 100 mM phosphate buffer (pH 7.4) for 1 hour in the presence of NADPH (FIG. 35). After the reaction, deproteinization treatment with acetonitrile was provided, and the resulting metabolites were analyzed with a high resolution LC/MS instrument (Q-TOF Ultima API, manufactured by Waters Corporation, USA). Mass chromatograms of the metabolites are shown below. […] MS/MS spectra of the peaks are shown below, respectively. The metabolites of Peak 1 and Peak 2 were assumed to be hydroxylated in the partial structures containing highly lipophilic side chain cyclohexyl groups. […] The metabolite of Peak 4 was assumed to have a thiol-containing site oxidized. Taking the ease of oxidation of this site into consideration, it was believed that the sulfur atom is likely to be the metabolic site.

[2] = side chain carboxyl group, phenolic hydroxy group or tetrazole; cited from earlier work
[3] = target: T1, soluble human IL-6R (IL-6R) (Homo sapiens, UniProt P08887); test: IL-6/IL-6R interaction by electrochemiluminescence immunoassay (protein denaturation by desulfurization solution); assay type: binding; details: 25 mM HEPES-K pH 7.6, 200 mM TCEP, 250 mM VA-044, 10 mM Cys, room temperature, 50 minutes
T1 sequence (P08887 20-355 limits assumed): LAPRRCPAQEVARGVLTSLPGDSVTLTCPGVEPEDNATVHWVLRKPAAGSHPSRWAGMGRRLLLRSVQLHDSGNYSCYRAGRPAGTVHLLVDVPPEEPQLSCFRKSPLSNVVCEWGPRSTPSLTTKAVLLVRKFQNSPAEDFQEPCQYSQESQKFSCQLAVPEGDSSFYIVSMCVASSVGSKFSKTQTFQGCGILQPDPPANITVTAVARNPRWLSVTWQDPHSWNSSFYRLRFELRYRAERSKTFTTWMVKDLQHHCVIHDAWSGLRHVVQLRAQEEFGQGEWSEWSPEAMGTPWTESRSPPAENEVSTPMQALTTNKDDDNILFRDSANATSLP
Method: Protein denaturation by a desulfurization reaction solution was evaluated (FIG. 34). As a model system, the effect of the desulfurization reaction condition on IL-6R was evaluated by detecting interaction between IL-6 and IL-6R using electrochemiluminescence immunoassay. First, 750 ng of anti-IL-6R antibody clone No. 17506 (R&D biosystems) was applied to a MSD Multi-array 384-well plate (MSD) and incubated at 4° C. overnight so that the antibody was immobilized on to the plate. The plate was washed with 80 μl of PBST three times to remove the unbound antibody, and blocking was then carried out with 2% skimmed milk for 1 hour. The blocking agent was washed away from the plate with 80 μl of PBST three times, after which 10 μl of 25 nM soluble human IL-6R (IL-6R) was added and the plate was shaken at room temperature for 50 minutes. The plate was washed with 80 μl of PBST three times, a desulfurization reaction solution (25 mM HEPES-K (pH 7.6), 200 mM TCEP, 250 mM VA-044 and 10 mM Cys) was added and the plate was shaken at room temperature for 50 minutes. The plate was washed with 80 μl of PBST three times, 10 μl of human IL-6-BAP (500 nM) was added and the plate was shaken at room temperature for 50 minutes. […] The plate was washed with 80 μl of PBST three times, and 35 μl of 2× read buffer (MSD, R92SC-3) was added, followed by measurement with SECTOR Imager 2400 (MSD) (FIG. 34).

## CC(C)C[C@@H]1NC(=O)CSC[C@@H](C(=O)N[C@@H](CC2CCCCC2)C(=O)N2CCCCC2)NC(=O)[C@H](C)NC(=O)[C@H](C(C)O)NC(=O)[C@H]([C@@H](C)O)NC(=O)[C@H](CC2CCCCC2)NC(=O)[C@H](C)N(C)C1=O (stereo partly drawn) [Compound P-113, Ac*-Leu-MeAla-Cha-Thr-Thr-Ala-Cys*-Cha-piperidine] ({CH2CO}-L[NMeA][Cha]T[Thr(3ξ)]AC[Cha]-Piperidide; thioether N-7)
[1]
  metabolites detected: Four peaks corresponding to hydroxides

## c1nnn[nH]1 [Tetrazole]
[2]
  pKa as an acid: 5.6

## OC1CSSCC1O (stereo not drawn) [oxidized DTT]
[3]
  effect on interaction between IL-6R and IL-6: restores the interaction between IL-6R and IL-6
